Measured values taken from ChEMBL document CHEMBL1122067, “Species- or isozyme-specific enzyme inhibitors. 4. Design of a two-site inhibitor of adenylate kinase with isozyme selectivity” (J Med Chem, 1982).
“And” between values parts separate entries of the source, which are not always exact repeats. Identical values can stand only once.

Columns and labels:
[1] = Non-competitive binding inhibition constant (Ki) of rat adenylate kinase (AK) isozymes was determined
[2] = target: T1, GTP:AMP phosphotransferase AK3, mitochondrial (Rattus norvegicus, UniProt P29411); assay: Competitive binding inhibition constant of rat Adenylate kinase III was determined
[3] = Competitive binding inhibition constant (Ki) of rat adenylate kinase (AK) isozymes was determined
[4] = target: T2, Adenylate kinase 2, mitochondrial (Rattus norvegicus, UniProt P29410); assay: Non competitive binding inhibition constant (Ki) of rat adenylate kinase (AK II) isozymes was determined
[5] = Non competitive binding inhibition constant (Ki) of rat adenylate kinase (AK) isozymes was determined
[6] = target: T1, GTP:AMP phosphotransferase AK3, mitochondrial; assay: Non competitive binding inhibition of rat adenylate kinase IIl was determined
[7] = target: T1, GTP:AMP phosphotransferase AK3, mitochondrial; assay: Competitive binding inhibition constant of rat adenylate kinase IIl was determined
[8] = Non competitive binding inhibition constant(Ki) of rat adenylate kinase (AK) isozymes was determined
[9] = target: T1, GTP:AMP phosphotransferase AK3, mitochondrial; assay: Non competitive binding inhibition constant of rat aAdenylate kinase III was determined
[10] = Non-competitive binding inhibition constant(Ki) of rat adenylate kinase (AK) isozymes was determined
[11] = target: T2, Adenylate kinase 2, mitochondrial; assay: Competitive binding inhibition constant(Ki) of rat adenylate kinase (AK II) isozymes was determined
[12] = target: T2, Adenylate kinase 2, mitochondrial; assay: Ability to inhibit the rat muscle adenylate kinase (AK II) isozyme in competition with the ATP varied; settings: in the assay text read “rat liver” for “rat muscle”
[13] = Ability to inhibit the rat muscle adenylate kinase isozyme in competition with the ATP varied
[14] = target: T1, GTP:AMP phosphotransferase AK3, mitochondrial; assay: Ability to inhibit the rat muscle adenylate kinase lII in competition with the AMP varied; settings: in the assay text read “rat liver adenylate kinase III” for “rat muscle adenylate kinase lII”
[15] = Ability to inhibit the rat muscle adenylate kinase isozyme in competition with the AMP varied
[16] = target: T2, Adenylate kinase 2, mitochondrial; assay: Ability to inhibit the rat muscle adenylate kinase (AK II) isozyme in competition with the AMP varied; settings: in the assay text read “rat liver” for “rat muscle”
[17] = target: T2, Adenylate kinase 2, mitochondrial; assay: Ability to inhibit the rat muscle adenylate kinase(AK II) isozyme in competition with the AMP varied; settings: in the assay text read “rat liver” for “rat muscle”
[18] = target: T2, Adenylate kinase 2, mitochondrial; assay: Ability to inhibit the rat muscle adenylate kinase(AK II) isozyme in competition with the ATP varied; settings: in the assay text read “rat liver” for “rat muscle”

T1 sequence (P29411 whole entry): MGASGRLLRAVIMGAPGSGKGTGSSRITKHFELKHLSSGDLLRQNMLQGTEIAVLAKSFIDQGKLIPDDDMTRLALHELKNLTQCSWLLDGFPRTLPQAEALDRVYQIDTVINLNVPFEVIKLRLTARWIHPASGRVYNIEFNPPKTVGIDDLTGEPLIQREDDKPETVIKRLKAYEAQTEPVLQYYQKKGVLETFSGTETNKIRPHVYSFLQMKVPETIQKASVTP

CC(=O)NCCCCCCNc1ncnc2c1ncn2C1O[C@H](COP(=O)(O)OP(=O)(O)OP(=O)(O)O)[C@@H](O)[C@H]1O (some centres not stated)
Ki [1]: 12.9 mM
Ki [2]: 4.8 mM

CCCCN(CCCC)c1ncnc2c1ncn2C1O[C@H](COP(=O)(O)OP(=O)(O)OP(=O)(O)O)[C@@H](O)[C@H]1O (some centres not stated)
Ki [3]: 2 mM
Ki [2]: 3 mM

CC(=O)NCCCCCCCCNc1ncnc2c1ncn2C1O[C@H](COP(=O)(O)O)[C@@H](O)[C@H]1O (some centres not stated)
Ki [4]: 12.6 mM
Ki [5]: 4.8 mM
Ki [6]: 14 mM

O=C(CI)NCCCCCNc1ncnc2c1ncn2C1O[C@H](COP(=O)(O)OP(=O)(O)OP(=O)(O)O)[C@@H](O)[C@H]1O (some centres not stated)
Ki [1]: 6 mM
Ki [7]: 6.2 mM

CC(=O)NCCNc1ncnc2c1ncn2C1O[C@H](COP(=O)(O)O)[C@@H](O)[C@H]1O (some centres not stated)
Ki [4]: 11.4 mM
Ki [8]: 3.1 mM
Ki [9]: 12.4 mM

CCCSc1nc2c(N)ncnc2n1[C@@H]1O[C@H](COP(=O)(O)OP(=O)(O)OP(=O)(O)O)[C@@H](O)[C@H]1O
Ki [10]: 6.2 mM
Ki [2]: 0.07 mM
Ki [11]: 0.06 mM

Nc1ncnc2c1nc(Sc1ccccc1)n2[C@@H]1O[C@H](COP(=O)(O)OP(=O)(O)OP(=O)(O)O)[C@@H](O)[C@H]1O
Ki [1]: 4 mM
Ki [2]: 0.32 mM

Nc1ncnc2c1ncn2[C@@H]1O[C@H](COP(=O)(O)OP(=O)(O)OP(=O)(O)OP(=O)(O)OP(=O)(O)OC[C@H]2O[C@@H](n3cnc4c(N)ncnc43)[C@H](O)[C@@H]2O)[C@@H](O)[C@H]1O
Inhibition constant [12]: 0.3 µM
Inhibition constant [13]: 0.26 µM
Inhibition constant [14]: 0.3 µM
Inhibition constant [15]: 0.26 µM
Inhibition constant [16]: 0.28 µM

CCSc1nc2c(N)ncnc2n1C1O[C@H](COP(=O)(O)OP(=O)(O)OP(=O)(O)OP(=O)(O)OP(=O)(O)OC[C@H]2OC(n3cnc4c(N)ncnc43)[C@H](O)[C@@H]2O)[C@@H](O)[C@H]1O (some centres not stated)
Inhibition constant [13]: 3 µM
Inhibition constant [14]: 0.08 µM and 0.07 µM
Inhibition constant [15]: 3.5 µM
Inhibition constant [17]: 0.06 µM
Inhibition constant [18]: 0.08 µM
